According to PubChem BioAssay (NCI):
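Five compound concentrations were applied to cells in 96-well plates for 48 hours; endpoints were derived by simple linear interpolation of the resulting dose-response curve. The concentration for 50% growth inhibition is given as GI50. At the TGI there is no net growth.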

Columns and labels:
Assay in all cases: inhibition of tumour cell growth, NCI panel, 48 h
SF-295 CNS = tested on: SF-295 CNS
SF-268 CNS = tested on: SF-268 CNS
HCT-116 colon = tested on: HCT-116 colon
RXF 393 renal = tested on: RXF 393 renal
HCC-2998 colon = tested on: HCC-2998 colon
SF-539 CNS = tested on: SF-539 CNS
SK-OV-3 ovarian = tested on: SK-OV-3 ovarian
NCI-H23 lung = tested on: NCI-H23 lung
HL-60(TB) leukemia = tested on: HL-60(TB) leukemia
DU-145 prostate = tested on: DU-145 prostate

SMILES | TGI (SF-295 CNS) [µM] | TGI (SF-268 CNS) [µM] | TGI (HCT-116 colon) [µM] | TGI (RXF 393 renal) [µM] | TGI (HCC-2998 colon) [µM] | TGI (SF-539 CNS) [µM] | TGI (SK-OV-3 ovarian) [µM] | TGI (NCI-H23 lung) [µM] | TGI (HL-60(TB) leukemia) [µM] | GI50 (SF-295 CNS) [µM] | GI50 (SF-268 CNS) [µM] | GI50 (HCT-116 colon) [µM] | GI50 (RXF 393 renal) [µM] | GI50 (HCC-2998 colon) [µM] | GI50 (SF-539 CNS) [µM] | GI50 (SK-OV-3 ovarian) [µM] | GI50 (DU-145 prostate) [µM] | TGI (DU-145 prostate) [µM] | GI50 (NCI-H23 lung) [µM] | GI50 (HL-60(TB) leukemia) [µM]
CN1C(c2ccccc2)CS(=O)(=O)CS1(=O)=O (stereo not drawn) | > 100 | > 100 | > 100 | > 100 | > 100 | > 100 | > 100 | > 100 |  |  |  |  |  |  |  |  |  |  |  | 
O/N=C1/C(=C/c2ccc(Oc3ccccc3)cc2)CCCC1C(NO)c1ccc(Oc2ccccc2)cc1 (stereo not drawn) | > 100 | > 100 | 24.6 | 52.2 | > 100 | > 100 | > 100 | 63.3 | 25.6 |  |  |  |  |  |  |  |  |  |  | 
Nc1nc2cc3ccc(C4CC(O)C(CO)O4)cc3cc2c(=O)[nH]1 (stereo not drawn) | > 100 | > 100 | > 100 | > 100 | > 100 | > 100 | > 100 | > 100 |  | > 100 | > 100 | > 100 | > 100 | > 100 | > 100 | > 100 | > 100 | > 100 | > 100 | 
CC(=O)[O-].[Mn+3].[O-]c1ccccc1C=NCCN=Cc1ccccc1[O-] | > 100 | > 100 | > 100 | > 100 | > 100 | > 100 |  | > 100 | > 100 | > 100 | 11.1 | 95.5 | > 100 | > 100 | > 100 |  |  |  | 58.9 | 19.2
COC(=O)CCC(=O)Nc1cc(Cl)ccc1Cl | > 100 | > 100 | > 100 | 65.8 | > 100 | > 100 | > 100 | > 100 | > 100 |  |  |  |  |  |  |  |  |  |  | 
O=S(=O)(SCc1ccccc1)C(c1ccccc1)c1ccccc1 | > 100 | > 100 | > 100 | 68 | > 100 | 43.1 | > 100 | 77.6 | 77 |  |  |  |  |  |  |  |  |  |  | 
CC1=C(C(=O)Nc2cc(=O)n(C)c(=O)n2C)C(c2ccc([N+](=O)[O-])cc2)C(C(=O)Nc2cc(=O)n(C)c(=O)n2C)=C(C)N1 | > 100 | > 100 | > 100 | > 100 | > 100 | > 100 | > 100 | > 100 | > 100 |  |  |  |  |  |  |  |  |  |  | 
Cc1[nH]c2ccccc2c1-c1cc(-c2cc(-c3c(C)[nH]c4ccccc34)nc(N)n2)nc(N)n1 | > 100 | > 100 | > 100 |  |  | > 100 | > 100 | > 100 | > 100 |  |  |  |  |  |  |  |  |  |  | 
Cc1ccccc1C(=O)Oc1ccc(O)cc1 | > 100 | > 100 | > 100 | > 100 | > 100 | > 100 | > 100 | > 100 | > 100 |  |  |  |  |  |  |  |  |  |  | 
COc1ccc(N/N=C(\CCN(C)C)c2ccccc2)cc1 | 1.65 | > 100 | 13.8 | 29.7 |  | 3.69 | 9.74 | 19.7 | 12.9 |  |  |  |  |  |  |  |  |  |  | 
CN(C)CCNC(=O)c1cccc2c(Nc3ccc(S(N)(=O)=O)cc3)c3ccccc3nc12 | 8.02 | 7.49 | 1.74 |  | 6.92 | 3.23 | 3.59 | 5.39 |  |  |  |  |  |  |  |  |  |  |  | 
CC(=O)O[C@H]1CCC2[C@@H]3CCC4=C(O)C(=O)C(C#N)C[C@]4(C)C3CC[C@@]21C (stereo partly drawn) | > 100 | > 100 | > 100 | > 100 | > 100 | > 100 | > 100 | > 100 | 85.3 |  |  |  |  |  |  |  |  |  |  | 
COC1=CC23CCCN2CCc2cc4c(cc2C3C1O)OCO4 (stereo not drawn) | > 100 | > 100 | > 100 |  | > 100 | > 100 | > 100 | > 100 | 83.8 |  |  |  |  |  |  |  |  | > 100 |  | 
CC#C/C(=N\OC[C@H]1COCCN1)c1ccc2ncnc(Nc3ccc(OCc4cccc(F)c4)c(Cl)c3)c2c1 | 3.26 |  | 3.42 |  | 3.41 | 3.2 | 1.35 | 3.41 | 4.57 | 1.72 |  | 1.69 |  | 1.84 | 1.68 | 0.0176 | 1.1 | 2.36 | 1.74 | 2.04
COc1cc(O)c2c(c1)C(=O)C=C(Cl)C2=O | > 100 | > 100 | > 100 | > 100 | > 100 | > 100 | > 100 | > 100 | > 100 |  |  |  |  |  |  |  |  |  |  | 
O=C(Cc1nc2ccccc2s1)C(=O)Nc1cccc(Cl)c1 | > 100 | > 100 | > 100 | > 100 | > 100 | > 100 | > 100 | > 100 | > 100 |  |  |  |  |  |  |  |  |  |  | 
CC(=O)OC1CC2Oc3ccc(C)cc3C(C)(O2)C1=O (stereo not drawn) | > 100 |  | > 100 | > 100 |  | > 100 | > 100 | > 100 | > 100 |  |  |  |  |  |  |  |  |  |  | 
C#CCN(N=O)C(=O)NC(CCCNC(=O)OCc1ccccc1)C(=O)OCc1ccccc1 (stereo not drawn) | > 100 | > 100 | > 100 | 84.4 | > 100 | > 100 | > 100 | > 100 | 42.9 |  |  |  |  |  |  |  |  |  |  | 
CCOC(=O)C(=O)Nc1ccc(Cl)cc1C | > 100 | > 100 | > 100 | > 100 | > 100 | > 100 | > 100 | > 100 | > 100 |  |  |  |  |  |  |  |  |  |  | 
COc1ccc(NC(=O)CC/C(CC(=O)C(C)(C)C)=N\NC(=O)C(N)=O)cc1 | > 100 | > 100 | > 100 | > 100 | > 100 | > 100 | > 100 | > 100 | > 100 |  |  |  |  |  |  |  |  |  |  | 
O=c1cc(-c2ccccc2)oc2cc(O)cc(O)c12 | 37.6 | 74.8 | 50.9 |  | 38.6 | 31.3 | 67 | 62.8 | 48.3 |  |  |  |  |  |  |  |  |  |  | 
